Source: patent publication US20240116922A1, “IMIDAZO[1,2-A]PYRIDINE DERIVATIVES AS IRAK4 INHIBITORS AND THEIR USE IN THE TREATMENT OF DISEASE” (BIOGEN MA INC., priority 2020, published 2024)
Converted amounts (≈) assume the structure as drawn. Counter-ions that a name gives are not always drawn.

Key:
IRAK4 = IRAK4 (Homo sapiens (Human), UniProt Q9NWZ3); experiment: IRAK4 MSD biochemical assay (2-hour 1 mM ATP); conditions: 0.1 nM IRAK4, 1 mM ATP, 2 hour at room temperature
[1] = Kinetic solubility assay (CLND), pH 6.8; format: physicochemical; conditions: aqueous buffer, kinetic from dmso stock; potassium phosphate buffer pH 6.8, 2% DMSO, 24 hours at ambient temperature
MDR1 = MDR1 (Homo sapiens (Human), UniProt P08183); experiment: in vitro; conditions: MDCK-MDR1
Chain of MDR1 (P08183 whole entry): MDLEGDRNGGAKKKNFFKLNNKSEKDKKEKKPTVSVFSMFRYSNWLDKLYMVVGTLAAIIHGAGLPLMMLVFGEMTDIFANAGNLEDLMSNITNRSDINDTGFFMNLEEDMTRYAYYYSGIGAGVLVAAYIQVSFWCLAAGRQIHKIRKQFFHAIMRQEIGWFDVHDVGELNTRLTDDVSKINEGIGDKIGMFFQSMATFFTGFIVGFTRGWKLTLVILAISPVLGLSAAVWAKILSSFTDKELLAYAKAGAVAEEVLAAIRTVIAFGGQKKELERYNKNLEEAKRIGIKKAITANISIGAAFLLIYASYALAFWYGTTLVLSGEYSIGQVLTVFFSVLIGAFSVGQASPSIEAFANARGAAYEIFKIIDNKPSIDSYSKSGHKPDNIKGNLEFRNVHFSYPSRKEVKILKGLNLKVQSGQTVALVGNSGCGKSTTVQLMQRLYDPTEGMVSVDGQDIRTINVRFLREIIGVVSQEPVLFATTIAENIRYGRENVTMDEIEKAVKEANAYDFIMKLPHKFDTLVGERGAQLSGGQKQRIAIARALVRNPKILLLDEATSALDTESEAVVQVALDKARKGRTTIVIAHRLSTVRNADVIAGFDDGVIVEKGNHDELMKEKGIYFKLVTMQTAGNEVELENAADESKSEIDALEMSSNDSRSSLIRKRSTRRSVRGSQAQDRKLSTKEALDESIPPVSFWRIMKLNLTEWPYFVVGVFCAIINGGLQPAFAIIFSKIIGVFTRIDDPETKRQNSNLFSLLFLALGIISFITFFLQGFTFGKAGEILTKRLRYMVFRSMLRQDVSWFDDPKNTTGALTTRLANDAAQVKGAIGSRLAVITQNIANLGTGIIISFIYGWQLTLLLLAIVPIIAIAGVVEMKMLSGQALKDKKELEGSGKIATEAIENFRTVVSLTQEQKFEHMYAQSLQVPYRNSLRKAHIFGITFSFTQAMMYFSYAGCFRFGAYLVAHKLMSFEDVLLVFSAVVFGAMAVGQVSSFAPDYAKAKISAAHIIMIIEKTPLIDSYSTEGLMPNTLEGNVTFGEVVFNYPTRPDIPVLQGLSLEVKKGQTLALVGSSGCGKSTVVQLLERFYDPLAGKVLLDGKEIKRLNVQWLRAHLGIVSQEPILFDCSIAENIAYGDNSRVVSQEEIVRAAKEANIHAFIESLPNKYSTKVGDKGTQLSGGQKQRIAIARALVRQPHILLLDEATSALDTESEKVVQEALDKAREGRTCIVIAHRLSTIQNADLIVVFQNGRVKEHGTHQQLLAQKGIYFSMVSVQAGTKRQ

Chain of IRAK4 (Q9NWZ3 whole entry): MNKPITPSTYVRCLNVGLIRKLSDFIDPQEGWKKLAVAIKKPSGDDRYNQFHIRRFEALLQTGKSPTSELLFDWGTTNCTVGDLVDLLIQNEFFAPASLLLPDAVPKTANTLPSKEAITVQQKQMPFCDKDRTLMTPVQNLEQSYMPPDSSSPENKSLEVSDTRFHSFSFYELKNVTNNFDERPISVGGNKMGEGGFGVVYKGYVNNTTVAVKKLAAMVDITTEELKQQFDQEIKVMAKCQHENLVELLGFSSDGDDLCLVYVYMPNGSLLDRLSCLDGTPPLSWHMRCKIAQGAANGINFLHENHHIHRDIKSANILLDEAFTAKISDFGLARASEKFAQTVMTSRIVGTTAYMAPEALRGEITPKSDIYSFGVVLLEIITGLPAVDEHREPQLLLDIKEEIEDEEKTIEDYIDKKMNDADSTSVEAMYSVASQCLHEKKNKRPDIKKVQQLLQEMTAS

SMILES: C[C@@H](CF)Oc1cc2nc(C34CCC(C)(C3)OC4)cn2cc1C(=O)Nc1cccn(C2CC2)c1=O (mixture of isomers) [Example 30, N-(1-cyclopropyl-2-oxo-1,2-dihydropyridin-3-yl)-7-(((S)-1-fluoropropan-2-yl)oxy)-2-(1-methyl-2-oxabicyclo[2.2.1]heptan-4-yl)imidazo[1,2-a]pyridine-6-carboxamide]
- IC50 (IRAK4): 0.2 nM
- solubility kinetic at 24 h [1]: 46.5 µg/mL
- efflux ratio at 120 min, 1 μM (MDR1): 11.1

SMILES: CC(C)Oc1cc2nc([C@]34CC[C@](C)(C3)OC4)cn2cc1C(=O)Nc1cccn(C2CC2F)c1=O (mixture of isomers) [Example 100, N-(1-(2-fluorocyclopropyl)-2-oxo-1,2-dihydropyridin-3-yl)-7-isopropoxy-2-((1R,4S)-1-methyl-2-oxabicyclo[2.2.1]heptan-4-yl)imidazo[1,2-a]pyridine-6-carboxamide]
- IC50 (IRAK4): 0.6 nM
- solubility kinetic at 24 h [1]: 27.6 µg/mL
- efflux ratio at 120 min, 1 μM (MDR1): 12.6

SMILES: O=C(Nc1cccn(C2CC2F)c1=O)c1cn2cc([C@]34CO[C@](CF)(C3)C4)nc2nc1OC1CCC1 (mixture of isomers) [Example 106, (rac)-Cis-7-cyclobutoxy-N-(1-(2-fluorocyclopropyl)-2-oxo-1,2-dihydropyridin-3-yl)-2-(1-(fluoromethyl)-2-oxabicyclo[2.1.1]hexan-4-yl)imidazo[1,2-a]pyrimidine-6-carboxamide]
- IC50 (IRAK4): 0.5 nM
- solubility kinetic at 24 h [1]: 44.4 µg/mL
- efflux ratio at 120 min, 1 μM (MDR1): 12.8

SMILES: CC12CC(c3cn4cc(C(=O)Nc5cccn([C@@H]6C[C@@H]6F)c5=O)c(OC5CCC5)cc4n3)(CO1)C2 (racemic) [Example 85, (rac)-Cis-7-cyclobutoxy-N-(1-(2-fluorocyclopropyl)-2-oxo-1,2-dihydropyridin-3-yl)-2-(1-methyl-2-oxabicyclo[2.1.1]hexan-4-yl)imidazo[1,2-a]pyridine-6-carboxamide]
- IC50 (IRAK4): 0.6 nM
- solubility kinetic at 24 h [1]: 44.5 µg/mL (≈ 93 µM)
- efflux ratio at 120 min, 1 μM (MDR1): 7.7

SMILES: O=C(Nc1cccn([C@@H]2C[C@@H]2F)c1=O)c1cn2cc(C34COC(C3)C4)nc2nc1OC1CCC1 (racemic) [Example 86, (rac)-Cis-2-(2-oxabicyclo[2.1.1]hexan-4-yl)-7-cyclobutoxy-N-(1-(2-fluorocyclopropyl)-2-oxo-1,2-dihydropyridin-3-yl)imidazo[1,2-a]pyrimidine-6-carboxamide]
- IC50 (IRAK4): 0.8 nM
- solubility kinetic at 24 h [1]: 44.9 µg/mL (≈ 96.5 µM)
- efflux ratio at 120 min, 1 μM (MDR1): 0.9

SMILES: CC12CC(c3cn4cc(C(=O)Nc5cccn(C6C[C@@H]6F)c5=O)c(OC5CCC5)nc4n3)(CO1)C2 (mixture of isomers) [Example 103, (rac)-Cis-7-cyclobutoxy-N-(1-(2-fluorocyclopropyl)-2-oxo-1,2-dihydropyridin-3-yl)-2-(1-methyl-2-oxabicyclo[2.1.1]hexan-4-yl)imidazo[1,2-a]pyrimidine-6-carboxamide]
- IC50 (IRAK4): 0.4 nM
- solubility kinetic at 24 h [1]: 58.8 µg/mL (≈ 123 µM)
- efflux ratio at 120 min, 1 μM (MDR1): 12.8

SMILES: CC12CC(c3cn4cc(C(=O)Nc5cccn([C@@H]6C[C@@H]6F)c5=O)c(OC5CC5)cc4n3)(CO1)C2 (racemic) [Example 105, (rac)-Cis-7-cyclopropoxy-N-(1-(2-fluorocyclopropyl)-2-oxo-1,2-dihydropyridin-3-yl)-2-(1-methyl-2-oxabicyclo[2.1.1]hexan-4-yl)imidazo[1,2-a]pyridine-6-carboxamide]
- IC50 (IRAK4): 0.7 nM
- solubility kinetic at 24 h [1]: 38.7 µg/mL (≈ 83.3 µM)
- efflux ratio at 120 min, 1 μM (MDR1): 15.8

SMILES: Cc1cnc2c(NC(=O)c3cn4cc([C@@]56CC[C@@](C)(C5)OC6)nc4cc3OC(C)C)cnn2c1 (single isomer, unassigned) [Comparator 3B, reference compound]
- IC50 (IRAK4): 0.1 nM
- solubility kinetic at 24 h [1]: 0.7 µg/mL (≈ 1.52 µM)
- efflux ratio at 120 min, 1 μM (MDR1): 2

SMILES: CC(C)Oc1nc2nc([C@@]34CC[C@@](C)(C3)OC4)cn2cc1C(=O)Nc1ccn(C)n1 (single isomer, unassigned) [Comparator 4C, reference compound]
- IC50 (IRAK4): 2.5 nM
- solubility kinetic at 24 h [1]: 51.3 µg/mL (≈ 125 µM)
- efflux ratio at 120 min, 1 μM (MDR1): 4.6

SMILES: CO[C@H]1C[C@@H]1n1cccc(NC(=O)c2cn3cc(C45COC(C)(C4)C5)nc3nc2OC(C)C)c1=O (single isomer, unassigned) [Example 138]
- IC50 (IRAK4): 6.3 nM
- efflux ratio at 120 min, 1 μM (MDR1): 3.8

SMILES: CC(C)Oc1nc2nc([C@@]34CC[C@@](C)(C3)OC4)cn2cc1C(=O)Nc1cccn([C@@H]2C[C@H]2C)c1=O (single isomer, unassigned) [Example 148]
- IC50 (IRAK4): 1.2 nM
- efflux ratio at 120 min, 1 μM (MDR1): 2.6

SMILES: CC(C)Oc1nc2nc([C@@]34CC[C@@](C)(C3)OC4)cn2cc1C(=O)Nc1cccn([C@H]2CC23CC3)c1=O (single isomer, unassigned) [Example 150]
- IC50 (IRAK4): 2.7 nM
- efflux ratio at 120 min, 1 μM (MDR1): 1

SMILES: CC(C)Oc1nc2nc([C@@]34CC[C@@](C)(C3)OC4)cn2cc1C(=O)Nc1cccn([C@@H]2CC23CC3)c1=O (single isomer, unassigned) [Example 151]
- IC50 (IRAK4): 1.1 nM
- efflux ratio at 120 min, 1 μM (MDR1): 1.2

SMILES: CC(C)Oc1nc2nc([C@]34CC[C@](C)(C3)OC4)cn2cc1C(=O)Nc1cccn([C@@H]2CC23CC3)c1=O (single isomer, unassigned) [Example 153]
- IC50 (IRAK4): 1.7 nM
- efflux ratio at 120 min, 1 μM (MDR1): 1.5

SMILES: O=C(Nc1cccn([C@@H]2C[C@@H]2F)c1=O)c1cn2cc(C34COC(C3)C4)nc2nc1OC1CCC1 (single isomer, unassigned) [Example 166]
- IC50 (IRAK4): 41 nM
- efflux ratio at 120 min, 1 μM (MDR1): 2.6

SMILES: CC(C)Oc1cc2nc([C@@]34CC[C@@](C)(C3)OC4)cn2cc1C(=O)Nc1cccn([C@H]2C[C@H]2F)c1=O (single isomer, unassigned) [Example 169]
- IC50 (IRAK4): 0.3 nM
- efflux ratio at 120 min, 1 μM (MDR1): 10.4

SMILES: CC(C)Oc1cc2nc(C34CCC(C3)OC4)cn2cc1C(=O)Nc1cccn(C2CC2)c1=O (stereo not shown) [Example 38, 2-(2-oxabicyclo[2.2.1]heptan-4-yl)-N-(1-cyclopropyl-2-oxo-1,2-dihydropyridin-3-yl)-7-isopropoxyimidazo[1,2-a]pyridine-6-carboxamide]
- IC50 (IRAK4): 0.3 nM
- efflux ratio at 120 min, 1 μM (MDR1): 7

SMILES: CCOc1nc2nc(C34COC(C)(C3)C4)cn2cc1C(=O)Nc1cccn(C2CC2)c1=O [Example 43, N-(1-cyclopropyl-2-oxo-1,2-dihydropyridin-3-yl)-7-ethoxy-2-(1-methyl-2-oxabicyclo[2.1.1]hexan-4-yl)imidazo[1,2-a]pyrimidine-6-carboxamide]
- IC50 (IRAK4): 1.3 nM
- efflux ratio at 120 min, 1 μM (MDR1): 10.3

SMILES: CC[C@@H](C)Oc1nc2nc([C@]34CC[C@](C)(C3)OC4)cn2cc1C(=O)Nc1cccn(C2CC2)c1=O [Example 51, 7-((R)-sec-butoxy)-N-(1-cyclopropyl-2-oxo-1,2-dihydropyridin-3-yl)-2-((1R,4S)-1-methyl-2-oxabicyclo[2.2.1]heptan-4-yl)imidazo[1,2-a]pyrimidine-6-carboxamide]
- IC50 (IRAK4): 1.8 nM
- efflux ratio at 120 min, 1 μM (MDR1): 3.1

SMILES: CC[C@@H](C)Oc1nc2nc(C34CCC(CF)(C3)OC4)cn2cc1C(=O)Nc1cccn(C2CC2)c1=O (stereo partly drawn) [Example 55, 7-((R)-sec-butoxy)-N-(1-cyclopropyl-2-oxo-1,2-dihydropyridin-3-yl)-2-(1-(fluoromethyl)-2-oxabicyclo[2.2.1]heptan-4-yl)imidazo[1,2-a]pyrimidine-6-carboxamide]
- IC50 (IRAK4): 1.1 nM
- efflux ratio at 120 min, 1 μM (MDR1): 4.7

SMILES: CC(C)Oc1c(C(=O)Nc2ccnn(C3CC3)c2=O)cn2cc(C34COC(C)(C3)C4)nc2c1F [Example 73, N-(2-cyclopropyl-3-oxo-2,3-dihydropyridazin-4-yl)-8-fluoro-7-isopropoxy-2-(1-methyl-2-oxabicyclo[2.1.1]hexan-4-yl)imidazo[1,2-a]pyridine-6-carboxamide]
- IC50 (IRAK4): 14 nM
- efflux ratio at 120 min, 1 μM (MDR1): 1

SMILES: CC(C)Oc1cc2nc(C34COC(C)(C3)C4)cn2cc1C(=O)Nc1cccn([C@@H]2C[C@@H]2C)c1=O [Example 133, 7-isopropoxy-2-(1-methyl-2-oxabicyclo[2.1.1]hexan-4-yl)-N-(1-((1R,2S)-2-methylcyclopropyl)-2-oxo-1,2-dihydropyridin-3-yl)imidazo[1,2-a]pyridine-6-carboxamide]
- IC50 (IRAK4): 21.4 nM
- efflux ratio at 120 min, 1 μM (MDR1): 4.3

SMILES: CC(C)Oc1c(C(=O)Nc2cccn([C@@H]3C[C@H]3C)c2=O)cn2cc(C34COC(C)(C3)C4)nc2c1F [Example 147, 8-fluoro-7-isopropoxy-2-(1-methyl-2-oxabicyclo[2.1.1]hexan-4-yl)-N-(1-((1R,2R)-2-methylcyclopropyl)-2-oxo-1,2-dihydropyridin-3-yl)imidazo[1,2-a]pyridine-6-carboxamide]
- IC50 (IRAK4): 15.9 nM
- efflux ratio at 120 min, 1 μM (MDR1): 1.5

SMILES: CC(C)Oc1cc2nc([C@]34CC[C@](C)(C3)OC4)cn2cc1C(=O)Nc1cccn([C@@H]2C[C@@H]2C)c1=O [Example 181, 7-isopropoxy-2-((1R,4S)-1-methyl-2-oxabicyclo[2.2.1]heptan-4-yl)-N-(1-((1R,2S)-2-methylcyclopropyl)-2-oxo-1,2-dihydropyridin-3-yl)imidazo[1,2-a]pyridine-6-carboxamide trifluoroacetate]
- IC50 (IRAK4): 24.9 nM
- efflux ratio at 120 min, 1 μM (MDR1): 5.3

SMILES: CC(C)Oc1cc2nc([C@@]34CC[C@@](C)(C3)OC4)cn2cc1C(=O)Nc1cccn([C@@H]2C[C@@H]2C)c1=O [Example 183, 7-isopropoxy-2-((1S,4R)-1-methyl-2-oxabicyclo[2.2.1]heptan-4-yl)-N-(1-((1R,2S)-2-methylcyclopropyl)-2-oxo-1,2-dihydropyridin-3-yl)imidazo[1,2-a]pyridine-6-carboxamide trifluoroacetate]
- IC50 (IRAK4): 15.4 nM
- efflux ratio at 120 min, 1 μM (MDR1): 2.9

SMILES: C[C@H]1C[C@H]1n1cccc(NC(=O)c2cn3cc(C45COC(C)(C4)C5)nc3nc2OC2CCC2)c1=O [Example 189, 7-cyclobutoxy-2-(1-methyl-2-oxabicyclo[2.1.1]hexan-4-yl)-N-(1-((1R,2S)-2-methylcyclopropyl)-2-oxo-1,2-dihydropyridin-3-yl)imidazo[1,2-a]pyrimidine-6-carboxamide trifluoroacetate]
- IC50 (IRAK4): 34.6 nM
- efflux ratio at 120 min, 1 μM (MDR1): 3.4
